Source: ChEMBL document CHEMBL6182942, “Discovery of a Selective, Novel TGF-βR1 Inhibitor GFH018 for the Treatment of Solid Tumors” (J Med Chem, 2025)
Active and inactive are the calls of the source. The rule behind the calls is not given here.

How the values were obtained:
[1] = Half life in Beagle dog at 5 mg/kg, po by LC-MS/MS analysis; assay type: ADME, organism-based, Canis lupus familiaris; conditions: in vivo
[2] = Half life in CD-1 mouse at 1 mg/kg, iv by LC-MS/MS analysis; assay type: ADME, organism-based; conditions: in vivo
T-cell = assay: Immunostimulatory activity in TGFbeta/anti-CD3 stimulated BALB/c mouse naive T cells assessed as reduction in Treg induction at 0.1 to 10 uM measured after 4 days by immunostaining based flow cytometry; assay type: functional; conditions: dose 0.1-10 µM, time 4.0 day
[3] = Mutagenicity in Salmonella typhimurium TA100 in presence of liver S9 fraction by Ames test; assay type: toxicity, subcellular; conditions: salmonella enterica subsp. enterica serovar typhimurium
4T1-Luc = assay: Antimetastatic activity against mouse 4T1-Luc cells implanted in BALB/c mouse assessed as reduction in metastatic rate in lung at 100 mg/kg, po administered daily for 32 days and measured on day 30 to 35 by IVIS fluorescence analysis; assay type: functional, organism-based; conditions: time 35.0 day
MDR1 = assay: Efflux ratio of apparent permeability in dog MDCK-MDR1 cells at 2 uM measured over 150 mins by LC-MS/MS analysis; assay type: ADME, cell-based, Canis lupus familiaris
[4] = Clearance in Sprague-Dawley rat at 1 mg/kg, iv by LC-MS/MS analysis; assay type: ADME, organism-based; conditions: in vivo
[5] = target: Receptor-interacting serine/threonine-protein kinase 2 (Homo sapiens) (UniProt O43353); assay: Inhibition of RIPK2 (unknown origin) assessed as residual activity at 1 uM relative to control
Chain of Receptor-interacting serine/threonine-protein kinase 2 (Homo sapiens) (O43353 whole entry): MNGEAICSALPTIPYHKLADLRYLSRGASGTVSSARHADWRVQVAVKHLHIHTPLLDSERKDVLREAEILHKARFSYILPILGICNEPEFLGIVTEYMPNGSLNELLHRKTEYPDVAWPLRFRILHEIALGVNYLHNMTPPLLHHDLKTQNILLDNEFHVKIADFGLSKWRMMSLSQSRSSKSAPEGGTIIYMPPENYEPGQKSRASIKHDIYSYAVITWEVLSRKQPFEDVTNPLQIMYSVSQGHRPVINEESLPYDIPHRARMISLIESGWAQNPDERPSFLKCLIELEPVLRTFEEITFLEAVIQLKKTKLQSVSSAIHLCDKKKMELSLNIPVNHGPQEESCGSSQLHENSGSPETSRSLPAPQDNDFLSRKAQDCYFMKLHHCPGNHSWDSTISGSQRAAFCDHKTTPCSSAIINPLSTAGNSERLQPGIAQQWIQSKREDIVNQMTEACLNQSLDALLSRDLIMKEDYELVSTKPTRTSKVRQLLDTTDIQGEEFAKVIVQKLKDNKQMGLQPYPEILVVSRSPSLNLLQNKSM

[6] = Mutagenicity in Salmonella typhimurium TA98 in presence of liver S9 fraction by Ames test; assay type: toxicity, subcellular; conditions: salmonella enterica subsp. enterica serovar typhimurium
[7] = Protein binding in Beagle dog plasma at 0.2 to 10 uM measured after 4 hrs by equilibrium dialysis based LC-MS/MS analysis; assay type: ADME, cell-free, Canis lupus familiaris; conditions: dose 0.2-10 µM, read-out: PPB (converted)
[8] = Cmax in CD-1 mouse at 5 mg/kg, po via gavage by LC-MS/MS analysis; assay type: ADME, organism-based; conditions: in vivo
CD14-positive cell = assay: Immunostimulatory activity in human PBMC derived M-CSF stimulated CD14-positive cells assessed as reduction in IL-10 level at 0.1 to 10 uM supplemented with fresh medium containing compound on day 1, 3 and 5 followed by M-CSF/IL-4/IL-13 stimulation for 2 days with subsequent LPS induction and measured after 16 hrs; assay type: functional, cell-based; conditions: dose 0.1-10 µM, time 7.0 day
[9] = Apparent permeability across apical to basolateral side in dog MDCK-MDR1 cells at 2 uM measured over 150 mins by LC-MS/MS analysis; assay type: ADME, cell-based, Canis lupus familiaris
[10] = Metabolic stability in human liver microsomes assessed as parent compound remaining at 1 uM preincubated for 5 mins followed by NADPH addition by LC-MS/MS analysis; assay type: ADME, Microsome; conditions: read-out: Stability
[11] = Volume of distribution at steady state in Beagle dog at 1 mg/kg, iv by LC-MS/MS analysis; assay type: ADME, organism-based, Canis lupus familiaris; conditions: in vivo, read-out: Vdss
[12] = Toxicity in mouse CT26 cell implanted BALB/c mouse assessed as change in body weight at 50 mg/kg, po administered twice daily in presence of antimouse-PD-L1 antibody; assay type: organism-based; conditions: in vivo
H22 = assay: Antitumor activity against mouse H22 cells implanted in BALB/c mouse assessed as tumor growth inhibition at 15 mg/kg, po administered twice daily for 11 days and measured 3 times per week during compound dosing relative to control; assay type: functional; conditions: H22, 264 h, time 11 day, read-out: TGI
[13] = target: TRAF2 and NCK-interacting protein kinase (Homo sapiens) (UniProt Q9UKE5); assay: Inhibition of TNIK (unknown origin) assessed as residual activity at 1 uM relative to control
Chain of TRAF2 and NCK-interacting protein kinase (Homo sapiens) (Q9UKE5 whole entry, looked up): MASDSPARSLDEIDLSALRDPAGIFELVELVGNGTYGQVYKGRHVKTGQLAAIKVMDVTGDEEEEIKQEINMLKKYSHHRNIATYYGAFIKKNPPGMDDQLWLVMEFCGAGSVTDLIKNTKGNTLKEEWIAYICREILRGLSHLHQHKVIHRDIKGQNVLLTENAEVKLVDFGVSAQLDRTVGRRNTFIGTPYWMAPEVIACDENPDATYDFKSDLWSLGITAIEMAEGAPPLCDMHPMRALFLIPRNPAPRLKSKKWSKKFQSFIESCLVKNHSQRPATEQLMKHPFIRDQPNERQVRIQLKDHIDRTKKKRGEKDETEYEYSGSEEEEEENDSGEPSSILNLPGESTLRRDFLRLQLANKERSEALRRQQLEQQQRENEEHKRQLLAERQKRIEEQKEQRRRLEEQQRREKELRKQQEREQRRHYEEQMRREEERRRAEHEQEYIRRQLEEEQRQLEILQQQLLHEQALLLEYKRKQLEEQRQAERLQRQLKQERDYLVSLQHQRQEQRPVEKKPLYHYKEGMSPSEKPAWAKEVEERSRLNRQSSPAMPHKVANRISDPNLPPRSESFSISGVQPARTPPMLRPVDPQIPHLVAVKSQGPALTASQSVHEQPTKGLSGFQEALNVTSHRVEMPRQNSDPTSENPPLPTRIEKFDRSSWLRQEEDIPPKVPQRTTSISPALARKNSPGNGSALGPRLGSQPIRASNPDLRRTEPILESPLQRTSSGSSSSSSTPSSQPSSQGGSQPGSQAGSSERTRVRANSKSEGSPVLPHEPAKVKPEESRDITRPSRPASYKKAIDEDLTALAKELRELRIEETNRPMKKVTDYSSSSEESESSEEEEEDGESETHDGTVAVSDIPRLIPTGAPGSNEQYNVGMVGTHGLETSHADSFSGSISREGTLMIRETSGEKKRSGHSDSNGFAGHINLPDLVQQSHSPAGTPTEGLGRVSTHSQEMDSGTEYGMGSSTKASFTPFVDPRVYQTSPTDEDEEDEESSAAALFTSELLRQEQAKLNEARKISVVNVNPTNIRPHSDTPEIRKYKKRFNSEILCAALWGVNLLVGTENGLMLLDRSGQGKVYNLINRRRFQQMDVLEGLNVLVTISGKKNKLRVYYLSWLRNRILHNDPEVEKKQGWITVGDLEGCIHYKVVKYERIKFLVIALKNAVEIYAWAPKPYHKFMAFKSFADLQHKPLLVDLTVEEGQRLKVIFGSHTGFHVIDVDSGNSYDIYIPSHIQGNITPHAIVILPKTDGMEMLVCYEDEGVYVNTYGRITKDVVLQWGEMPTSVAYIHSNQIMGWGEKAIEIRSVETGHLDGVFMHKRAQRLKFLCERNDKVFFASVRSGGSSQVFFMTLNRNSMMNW

[14] = target: Mitogen-activated protein kinase 14 (Homo sapiens, UniProt Q16539); assay: Inhibition of p38alpha (unknown origin) measured after 40 mins in presence of [gamma-33P]ATP by microbeta liquid scintillation counting analysis; assay type: toxicity
Chain of Mitogen-activated protein kinase 14 (Q16539 whole entry): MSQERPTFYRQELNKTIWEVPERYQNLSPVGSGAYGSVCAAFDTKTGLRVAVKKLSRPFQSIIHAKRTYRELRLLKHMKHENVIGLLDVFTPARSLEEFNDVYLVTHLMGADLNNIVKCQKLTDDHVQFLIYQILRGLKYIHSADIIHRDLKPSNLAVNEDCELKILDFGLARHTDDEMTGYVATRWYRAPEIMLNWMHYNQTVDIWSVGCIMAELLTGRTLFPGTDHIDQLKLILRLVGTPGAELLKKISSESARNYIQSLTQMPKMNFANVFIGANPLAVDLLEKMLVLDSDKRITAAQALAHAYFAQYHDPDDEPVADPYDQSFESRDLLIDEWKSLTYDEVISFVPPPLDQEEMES

[15] = Volume of distribution at steady state in Sprague-Dawley rat at 1 mg/kg, iv by LC-MS/MS analysis; assay type: ADME, organism-based; conditions: in vivo, read-out: Vdss
Cytochrome P450 1A2 = Cytochrome P450 1A2 (Homo sapiens, UniProt P05177); assay: Inhibition of CYP1A2 in human liver microsomes using phenacetin as substrate preincubated for 10 mins followed by NADPH regeneration system addition and measured after 10 mins by LC-MS/MS analysis; assay type: ADME, Microsome
Chain of Cytochrome P450 1A2 (P05177 whole entry): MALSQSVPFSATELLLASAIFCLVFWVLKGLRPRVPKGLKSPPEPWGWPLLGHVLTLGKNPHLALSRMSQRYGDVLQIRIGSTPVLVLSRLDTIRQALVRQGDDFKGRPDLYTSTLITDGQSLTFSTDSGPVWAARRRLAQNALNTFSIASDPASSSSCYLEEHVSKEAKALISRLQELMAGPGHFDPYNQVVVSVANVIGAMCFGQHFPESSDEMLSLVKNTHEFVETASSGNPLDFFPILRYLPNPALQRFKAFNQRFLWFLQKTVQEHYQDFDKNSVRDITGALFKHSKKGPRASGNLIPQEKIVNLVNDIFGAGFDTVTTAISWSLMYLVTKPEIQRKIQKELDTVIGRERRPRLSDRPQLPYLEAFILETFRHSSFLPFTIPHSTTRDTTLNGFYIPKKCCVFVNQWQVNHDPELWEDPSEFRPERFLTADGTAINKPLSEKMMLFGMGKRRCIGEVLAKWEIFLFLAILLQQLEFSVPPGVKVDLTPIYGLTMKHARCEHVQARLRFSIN

Cytochrome P450 2D6 = Cytochrome P450 2D6 (Homo sapiens, UniProt P10635); assay: Inhibition of CYP2D6 in human liver microsomes using dextromethorphan as substrate preincubated for 10 mins followed by NADPH regeneration system addition and measured after 20 mins by LC-MS/MS analysis; assay type: ADME, Microsome
Chain of Cytochrome P450 2D6 (P10635 whole entry): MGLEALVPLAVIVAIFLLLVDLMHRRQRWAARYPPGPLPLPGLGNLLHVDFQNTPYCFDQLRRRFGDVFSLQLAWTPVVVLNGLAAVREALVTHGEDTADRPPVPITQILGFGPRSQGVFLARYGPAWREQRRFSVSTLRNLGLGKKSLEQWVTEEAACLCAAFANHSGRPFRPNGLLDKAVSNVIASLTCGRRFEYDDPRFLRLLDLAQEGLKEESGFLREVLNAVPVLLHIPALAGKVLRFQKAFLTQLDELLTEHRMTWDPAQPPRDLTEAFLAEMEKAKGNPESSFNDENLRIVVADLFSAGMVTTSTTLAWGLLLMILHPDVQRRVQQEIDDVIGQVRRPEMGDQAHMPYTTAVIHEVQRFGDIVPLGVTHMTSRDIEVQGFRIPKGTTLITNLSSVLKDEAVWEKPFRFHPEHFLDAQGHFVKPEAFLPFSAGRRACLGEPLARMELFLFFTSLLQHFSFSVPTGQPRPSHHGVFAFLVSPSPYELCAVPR

[16] = AUC (0 to last) in Sprague-Dawley rat at 1 mg/kg, iv by LC-MS/MS analysis; assay type: ADME, organism-based; conditions: in vivo
CT26 = assay: Synergistic antitumor activity against mouse CT26 cells implanted in BALB/c mouse assessed as tumor growth inhibition at 50 mg/kg, po administered twice daily in presence of antimouse-PD-L1 antibody; assay type: functional; conditions: read-out: TGI
[17] = Oral bioavailability in CD-1 mouse at 75 mg/kg via gavage by LC-MS/MS analysis; assay type: ADME, organism-based; conditions: in vivo
Cytochrome P450 2C8 = Cytochrome P450 2C8 (Homo sapiens, UniProt P10632); assay: Inhibition of CYP2C8 in human liver microsomes using amodiaquine as substrate preincubated for 10 mins followed by NADPH regeneration system addition and measured after 10 mins by LC-MS/MS analysis; assay type: ADME, Microsome
Chain of Cytochrome P450 2C8 (P10632 whole entry): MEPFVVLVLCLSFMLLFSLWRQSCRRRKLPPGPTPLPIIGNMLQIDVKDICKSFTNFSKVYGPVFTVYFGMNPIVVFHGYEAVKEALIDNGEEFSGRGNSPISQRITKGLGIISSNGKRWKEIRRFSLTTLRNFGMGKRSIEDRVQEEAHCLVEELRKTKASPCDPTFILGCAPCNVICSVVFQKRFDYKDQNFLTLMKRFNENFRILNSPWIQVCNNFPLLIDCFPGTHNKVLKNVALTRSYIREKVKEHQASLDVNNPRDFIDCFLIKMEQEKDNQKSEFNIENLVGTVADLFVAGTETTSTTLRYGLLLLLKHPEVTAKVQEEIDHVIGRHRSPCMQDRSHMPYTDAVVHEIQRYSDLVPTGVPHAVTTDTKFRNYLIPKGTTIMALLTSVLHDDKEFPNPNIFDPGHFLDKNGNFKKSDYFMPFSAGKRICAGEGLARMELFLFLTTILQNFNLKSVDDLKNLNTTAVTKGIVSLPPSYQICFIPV

[18] = Drug metabolism in dog liver microsomes; assay type: ADME, Canis lupus familiaris, Microsome
TGF-beta receptor type-1 = target: T1, TGF-beta receptor type-1 (Homo sapiens, UniProt P36897); assay: Inhibition of human TGFbetaR1 expressed in HEK293 cells co-expressing SBE assessed as reduction in TGFbeta/activin A-induced SMAD phosphorylation preincubated for 4 to 5 hrs followed by TGFbeta/activin A stimulation and measured after 18 hrs by luciferase reporter gene assay; assay type: cell-based
T1 sequence (P36897 whole entry): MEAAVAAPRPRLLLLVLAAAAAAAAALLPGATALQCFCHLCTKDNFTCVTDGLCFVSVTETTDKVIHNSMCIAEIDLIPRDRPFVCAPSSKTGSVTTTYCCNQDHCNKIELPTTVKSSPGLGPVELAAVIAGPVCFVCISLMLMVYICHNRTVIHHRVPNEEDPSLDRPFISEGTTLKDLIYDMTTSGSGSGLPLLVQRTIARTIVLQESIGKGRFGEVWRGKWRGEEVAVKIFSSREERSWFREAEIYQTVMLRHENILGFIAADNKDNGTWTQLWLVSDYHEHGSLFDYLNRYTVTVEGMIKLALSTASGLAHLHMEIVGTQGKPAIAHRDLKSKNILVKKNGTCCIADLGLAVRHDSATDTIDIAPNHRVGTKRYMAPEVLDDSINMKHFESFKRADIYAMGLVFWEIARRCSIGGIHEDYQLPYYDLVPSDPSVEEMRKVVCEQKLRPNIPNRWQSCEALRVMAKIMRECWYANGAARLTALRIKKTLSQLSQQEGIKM

[19] = target: Voltage-gated inwardly rectifying potassium channel KCNH2 (Homo sapiens, UniProt Q12809); assay: Inhibition of human ERG stably expressed in HEK293 cells measured at holding potential of -80 mV by manual patch clamp assay; assay type: toxicity, cell-based
Chain of Voltage-gated inwardly rectifying potassium channel KCNH2 (Q12809 whole entry): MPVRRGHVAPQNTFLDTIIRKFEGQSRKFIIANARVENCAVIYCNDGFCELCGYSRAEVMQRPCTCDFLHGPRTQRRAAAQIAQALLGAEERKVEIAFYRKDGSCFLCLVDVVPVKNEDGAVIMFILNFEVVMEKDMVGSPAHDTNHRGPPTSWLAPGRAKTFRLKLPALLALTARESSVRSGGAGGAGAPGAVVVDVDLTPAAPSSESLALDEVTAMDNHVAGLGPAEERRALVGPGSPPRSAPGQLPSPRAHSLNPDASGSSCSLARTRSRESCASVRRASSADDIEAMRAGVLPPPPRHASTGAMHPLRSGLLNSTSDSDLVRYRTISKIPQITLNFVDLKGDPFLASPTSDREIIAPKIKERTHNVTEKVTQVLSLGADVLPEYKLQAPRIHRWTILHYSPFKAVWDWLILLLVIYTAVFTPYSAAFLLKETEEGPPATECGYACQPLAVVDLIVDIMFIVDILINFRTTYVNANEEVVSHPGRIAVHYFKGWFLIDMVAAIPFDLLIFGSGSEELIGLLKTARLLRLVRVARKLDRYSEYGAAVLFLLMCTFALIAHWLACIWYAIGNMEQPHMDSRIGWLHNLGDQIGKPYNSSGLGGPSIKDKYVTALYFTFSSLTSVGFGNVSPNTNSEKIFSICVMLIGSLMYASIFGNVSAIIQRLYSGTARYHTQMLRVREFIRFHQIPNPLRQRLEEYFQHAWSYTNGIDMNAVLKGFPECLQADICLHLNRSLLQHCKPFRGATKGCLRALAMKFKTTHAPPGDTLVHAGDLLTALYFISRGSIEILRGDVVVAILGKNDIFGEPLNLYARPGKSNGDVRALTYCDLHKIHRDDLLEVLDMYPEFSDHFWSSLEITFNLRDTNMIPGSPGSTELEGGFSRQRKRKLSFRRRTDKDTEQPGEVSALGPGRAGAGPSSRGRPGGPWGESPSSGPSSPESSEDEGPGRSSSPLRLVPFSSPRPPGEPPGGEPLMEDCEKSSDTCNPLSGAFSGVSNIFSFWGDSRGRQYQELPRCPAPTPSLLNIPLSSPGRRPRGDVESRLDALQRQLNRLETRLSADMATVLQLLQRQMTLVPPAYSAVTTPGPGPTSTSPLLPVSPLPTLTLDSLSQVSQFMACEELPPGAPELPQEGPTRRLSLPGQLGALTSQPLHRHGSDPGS

[20] = Intrinsic clearance in dog hepatocytes at 1 uM measured after 90 mins by LC-MS/MS analysis; assay type: ADME, cell-based, Canis lupus familiaris, Hepatocyte; conditions: read-out: CLH

Cc1cccc(-c2nn3c(c2-c2ccc4ncnn4c2/C=C/C(N)=O)CCC3)n1
half-life [1]: 2.83 h | half-life [2]: 0.484 h | Activity (T-cell): Active | Activity [3]: Non-toxic | Activity (4T1-Luc): Active | efflux ratio at 2.5 h, 2 µM (MDR1): 70.7 | clearance [4]: 33.3 mL/min/kg | Activity [5]: < 50% | Activity [6]: Non-toxic | fraction unbound at 4 h, up to 10 µM [7]: 0.476 | Cmax [8]: 355 nM/ml | Activity (CD14-positive cell): Active | Papp A→B at 2.5 h, 2 µM [9]: 0.39 ×10⁻⁶ cm/s | remaining at 1 µM [10]: 87.5% | Vd [11]: 0.961 L/kg | Activity [12]: Non-toxic | inhibition in vivo at 15 mg/kg (H22): 50.8% | Activity [13]: < 50% | IC50 [14]: 2.65 µM | Vd [15]: 1.44 L/kg | IC50 (Cytochrome P450 1A2): > 100 µM | IC50 (Cytochrome P450 2D6): > 100 µM | AUClast [16]: 1332 nM.hr/ml | inhibition in vivo at 50 mg/kg (CT26): 79.4% | bioavailability [17]: 36.8% | IC50 (Cytochrome P450 2C8): > 100 µM | Drug metabolism [18]: metabolite_detected | IC50 (TGF-beta receptor type-1): 0.105 µM | IC50 [19]: > 30 µM | CLint scaled at […], 1 µM [20]: < 17.1 mL/min/kg
